Source: US20260286295A1, “COMPOSITION FOR INDUCING DIRECT DIFFERENTIATION OF STEM CELLS INTO CORNEAL ENDOTHELIAL CELLS AND METHOD FOR INDUCING DIRECT DIFFERENTIATION USING SAME” (THE ASAN FOUNDATION, priority 2023, published 2026)

The compounds below were run on iPSCs (assay: ZO-1 immunocytochemical staining, efficiency of direct differentiation of iPSCs into CECs). Settings: concluded from culture media that omit the constituent (Examples 3-4 to 3-7).
Format: cell-based, human
Procedure: To compare the effect on differentiation efficiency using ZO-1 marker staining of iPSC-derived CECs, CECs were fixed in 4% paraformaldehyde for 30 minutes, washed with PBS buffer, permeabilized with 0.5% Triton X-100, and blocked in PBST containing 1% bovine serum albumin (Sigma-Aldrich). […] Nuclei were counterstained for 10 minutes with 4′,6-diamidino-2-phenylindole (DAPI; Sigma-Aldrich), and fluorescence signals were detected using a laser scanning confocal microscope (Olympus, Tokyo, Japan) or a fluorescence microscope (EVOS, Life Technologies).

| SMILES | role of the constituent in direct differentiation from iPSCs into CECs |
| --- | --- |
| Cc1cncc2cccc(S(=O)(=O)N3CCCNC[C@@H]3C)c12 [Example H-1152, (2S)-2-methyl-1-[(4-methyl-5-isoquinolinyl)sulfonyl]hexahydro-1H-1,4-diazepine] | important |
| O=S(=O)(c1cccc2cnccc12)N1CCCNCC1 [Fasudil, fasudil] | important |
| NC(=O)c1ccc(-c2nc(-c3ccc4c(c3)OCO4)c(-c3ccccn3)[nH]2)cc1 [SB431542, 4-[4-(2H-1,3-benzodioxol-5-yl)-5-(pyridin-2-yl)-1H-imidazol-2-yl]benzamide] | important |
